Results on one compound are retold here after US8377980B2, “Hepatitis C virus inhibitors” (Bristol-Myers Squibb Company, priority 2009, dated 2013).

The assay deals with HCV 1b genotype. The assay can be described thus: HCV Replicon assay (HCV 1b genotype). The assay is classed as cell-based. To be noted: Hepatitis C virus; HCV 1b genotype replicon; range class; read-out: EC50-Range. The protocol: An HCV Replicon assay was utilized in the present disclosure, and was prepared, conducted and validated as described in commonly owned PCT/US2006/022197 and in O'Boyle et al., Antimicrob. Agents Chemother., 49(4):1346-1353 (April 2005). Assay methods incorporating luciferase reporters have also been used as described (Apath.com).
HCV-neo replicon cells and replicon cells containing resistance substitutions in the NS5A region were used to test the currently described family of compounds. The compounds were determined to have differing degrees of reduced inhibitory activity on cells containing mutations vs. the corresponding inhibitory potency against wild-type cells. Thus, the compounds of the present disclosure can be effective in inhibiting the function of the HCV NS5A protein and are understood to be as effective in combinations as previously described in application PCT/US2006/022197 and commonly owned WO 04/014852. It should be understood that the compounds of the present disclosure can inhibit multiple genotypes of HCV. […] In one embodiment, compounds of the present disclosure are inhibitory versus 1a, 1b, 2a, 2b, 3a, 4a, and 5a genotypes. EC50 values against HCV 1b are as follows.

On to `C=CCc1cc([C@@H]2CCCN2C(=O)[C@@H](NC(=O)OC)C2CCOCC2)[nH]c1-c1ccc(-c2ccc(-c3cnc([C@@H]4CCCN4C(=O)[C@@H](NC(=O)OC)C4CCOCC4)[nH]3)cc2)cc1` [OL16], for which the concentration giving a half-maximal response (EC50) – broadly, the concentration that produces a half-maximal response – lay in the range of 0.01 to 0.1 nM.
